Assay results: patent publication US7722876B2 (priority 2002, dated 2010)
pIC50: −log10 of the molar value. Where a SMILES comes first, the peptide text is derived from it.

system: fluconazole-resistant (AIDS 68) C.albicans; assay type: in vivo, Candida albicans; details: day 0; rats; 100 μg fluconazole at 1, 24, 48 h

SMILES	C. albicans vaginal CFU (×10^3) (±SD)
OC(Cn1cncn1)(Cn1cncn1)c1ccc(F)cc1F [fluconazole]	>100 ×10^3

same assay, conditions: day 7; rats; 100 μg fluconazole at 1, 24, 48 h

SMILES	C. albicans vaginal CFU (×10^3) (±SD)
OC(Cn1cncn1)(Cn1cncn1)c1ccc(F)cc1F [fluconazole]	64 ± 6 ×10^3

same assay, conditions: day 14; rats; 100 μg fluconazole at 1, 24, 48 h

SMILES	C. albicans vaginal CFU (×10^3) (±SD)
OC(Cn1cncn1)(Cn1cncn1)c1ccc(F)cc1F [fluconazole]	48 ± 3 ×10^3

same assay, conditions: day 28; rats; 100 μg fluconazole at 1, 24, 48 h

SMILES	C. albicans vaginal CFU (×10^3) (±SD)
OC(Cn1cncn1)(Cn1cncn1)c1ccc(F)cc1F [fluconazole]	12 ± 4 ×10^3

system: LLC-MK2 rhesus monkey kidney cells; details: not given

SMILES	toxic effects on cell viability
CSCC[C@H](NC(=O)[C@@H](NC(=O)[C@@H](NC(=O)[C@H](CCCCN)NC(=O)[C@H](C)N)C(C)C)[C@@H](C)O)C(=O)N[C@H](C(=O)N[C@@H](CS)C(=O)N[C@@H](CO)C(=O)N[C@@H](C)C(=O)N[C@@H](CO)C(N)=O)[C@@H](C)O [KM] (H-AKVTMTCSAS-NH2)	no toxic effects

system: C.albicans UP10 cells; details: 6 h

SMILES	pIC50
CC(C)[C@H](NC(=O)CNC(=O)[C@H](Cc1ccc(O)cc1)NC(=O)CN)C(=O)N[C@@H](CC(N)=O)C(N)=O [Heavy chain CDR-1] (H-GYGVN-NH2; N-terminus and C-terminus assumed)	6.57
CC[C@H](C)[C@H](NC(=O)[C@@H](N)CCSC)C(=O)N[C@@H](Cc1c[nH]c2ccccc12)C(=O)NCC(=O)N[C@@H](CC(=O)O)C(=O)NCC(=O)N[C@@H](CO)C(=O)N[C@H](C(=O)N[C@@H](CC(=O)O)C(=O)N[C@@H](Cc1ccc(O)cc1)C(=O)N[C@@H](CC(N)=O)C(=O)N[C@@H](CO)C(=O)N[C@@H](C)C(=O)N[C@@H](CC(C)C)C(N)=O)[C@@H](C)O [Heavy chain CDR-2] (H-MIWGDGSTDYNSAL-NH2; N-terminus and C-terminus assumed)	6.93
CSCC[C@H](NC(=O)[C@H](C)NC(=O)[C@H](Cc1ccc(O)cc1)NC(=O)[C@@H](N)CC(C)C)C(N)=O [Heavy chain CDR-3] (H-LYAM-NH2; N-terminus and C-terminus assumed)	6.96
CSCC[C@H](NC(=O)[C@H](Cc1ccc(O)cc1)NC(=O)[C@H](CO)NC(=O)[C@@H](NC(=O)[C@H](CO)NC(=O)[C@H](CO)NC(=O)[C@H](CO)NC(=O)[C@H](C)NC(=O)[C@@H](N)CO)C(C)C)C(=O)N[C@@H](Cc1ccc(O)cc1)C(N)=O [Light chain CDR-1] (H-SASSSVSYMY-NH2; N-terminus and C-terminus assumed)	6.16
CC(C)C[C@H](NC(=O)[C@H](CC(N)=O)NC(=O)[C@H](CO)NC(=O)[C@@H](NC(=O)[C@@H](N)CC(C)C)[C@@H](C)O)C(=O)N[C@@H](C)C(=O)N[C@@H](CO)C(N)=O [Light chain CDR-2] (H-LTSNLAS-NH2; N-terminus and C-terminus assumed)	6.63
NC(=O)CC[C@H](NC(=O)[C@@H](N)CCC(N)=O)C(=O)N[C@@H](Cc1c[nH]c2ccccc12)C(=O)N[C@@H](CO)C(=O)N[C@@H](CO)C(=O)N[C@@H](CC(N)=O)C(=O)N1CCC[C@H]1C(=O)N[C@@H](Cc1ccc(O)cc1)C(N)=O [Light chain CDR-3] (H-QQWSSNPY-NH2; N-terminus and C-terminus assumed)	6.70
CSCC[C@H](NC(=O)[C@@H](NC(=O)[C@@H](NC(=O)[C@H](CCCCN)NC(=O)[C@H](C)N)C(C)C)[C@@H](C)O)C(=O)N[C@H](C(=O)N[C@@H](CS)C(=O)N[C@@H](CO)C(=O)N[C@@H](C)C(N)=O)[C@@H](C)O [SEQ ID 14] (H-AKVTMTCSA-NH2; N-terminus and C-terminus assumed)	4.30
CSCC[C@H](NC(=O)[C@@H](NC(=O)[C@@H](NC(=O)[C@H](CCCCN)NC(=O)[C@H](C)N)C(C)C)[C@@H](C)O)C(=O)N[C@H](C(=O)N[C@@H](CS)C(=O)N[C@@H](CO)C(N)=O)[C@@H](C)O [SEQ ID 15] (H-AKVTMTCS-NH2; N-terminus and C-terminus assumed)	4.64
CSCC[C@H](NC(=O)[C@@H](NC(=O)[C@@H](NC(=O)[C@H](CCCCN)NC(=O)[C@H](C)N)C(C)C)[C@@H](C)O)C(=O)N[C@H](C(=O)N[C@@H](CS)C(N)=O)[C@@H](C)O [SEQ ID 16] (H-AKVTMTC-NH2; N-terminus and C-terminus assumed)	6.22
CSCC[C@H](NC(=O)[C@@H](NC(=O)[C@@H](NC(=O)[C@H](CCCCN)NC(=O)[C@H](C)N)C(C)C)[C@@H](C)O)C(=O)N[C@H](C(N)=O)[C@@H](C)O [SEQ ID 17] (H-AKVTMT-NH2; N-terminus and C-terminus assumed)	3.14
CSCC[C@H](NC(=O)[C@@H](NC(=O)[C@@H](NC(=O)[C@H](CCCCN)NC(=O)[C@H](C)N)C(C)C)[C@@H](C)O)C(N)=O [SEQ ID 18] (H-AKVTM-NH2; N-terminus and C-terminus assumed)	4.60
CC(C)[C@H](NC(=O)[C@H](CCCCN)NC(=O)[C@H](C)N)C(=O)N[C@H](C(N)=O)[C@@H](C)O [SEQ ID 19] (H-AKVT-NH2; N-terminus and C-terminus assumed)	3.15
CC(C)[C@H](NC(=O)[C@H](CCCCN)NC(=O)[C@H](C)N)C(N)=O [SEQ ID 20] (H-Ala-Lys-Val-NH2; N-terminus and C-terminus assumed)	5.00
